# Results from paper PMC6886798, “Expression of myeloid Src-family kinases is associated with poor prognosis in AML and influences Flt3-ITD kinase inhibitor acquired resistance” (PLoS ONE, 2019).
# Columns and labels:
# Hck T338L = target: T1, Hck T338L (Homo sapiens, UniProt P08631, T333L); assay: Z'-LYTE in vitro kinase assay; type: biochemical
# T1 construct: Recombinant near-full-length kinases, consisting of the SH2, SH3 and kinase domains plus the negative regulatory tail; made in house; host or cells: E. coli BL21Star (DE3), co-expressed with Csk and PTP1B
# T1 sequence (P08631 78-526 T333L limits assumed): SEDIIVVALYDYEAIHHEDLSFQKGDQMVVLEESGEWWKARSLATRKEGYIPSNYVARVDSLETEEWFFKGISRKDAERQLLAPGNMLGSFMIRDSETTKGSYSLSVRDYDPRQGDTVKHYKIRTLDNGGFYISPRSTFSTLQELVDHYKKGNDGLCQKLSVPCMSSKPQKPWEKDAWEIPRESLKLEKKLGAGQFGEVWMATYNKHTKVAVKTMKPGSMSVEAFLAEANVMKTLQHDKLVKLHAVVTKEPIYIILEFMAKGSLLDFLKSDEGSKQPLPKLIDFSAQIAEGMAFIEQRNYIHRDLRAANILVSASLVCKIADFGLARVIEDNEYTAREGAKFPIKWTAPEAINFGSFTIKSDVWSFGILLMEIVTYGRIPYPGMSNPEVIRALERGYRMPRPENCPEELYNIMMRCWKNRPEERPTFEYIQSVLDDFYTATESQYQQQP
# CSK = target: T2, CSK (Homo sapiens, UniProt P41240); assay: KINOMEscan; type: binding; details: 1.0 µM
# T2 construct: purchased Eurofins/DiscoverX KINOMEscan scanMAX
# T2 sequence (P41240 whole entry): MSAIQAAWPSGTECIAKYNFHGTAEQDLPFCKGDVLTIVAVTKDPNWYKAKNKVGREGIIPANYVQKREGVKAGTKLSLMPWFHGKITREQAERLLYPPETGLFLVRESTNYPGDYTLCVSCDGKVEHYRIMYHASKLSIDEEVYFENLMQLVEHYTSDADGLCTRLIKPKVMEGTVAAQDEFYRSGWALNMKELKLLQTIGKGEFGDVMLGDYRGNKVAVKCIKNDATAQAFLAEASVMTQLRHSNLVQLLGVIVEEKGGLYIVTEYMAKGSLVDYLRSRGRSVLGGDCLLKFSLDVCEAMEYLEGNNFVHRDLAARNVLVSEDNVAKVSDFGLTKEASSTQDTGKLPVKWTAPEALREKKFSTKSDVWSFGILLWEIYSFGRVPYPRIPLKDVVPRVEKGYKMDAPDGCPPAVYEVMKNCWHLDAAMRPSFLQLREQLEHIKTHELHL
# Description: (§1) Kinase retention to the immobilized ligand is then measured using quantitative real-time PCR for each kinase-specific DNA barcode.
# TESK1 = target: T3, TESK1 (Homo sapiens, UniProt Q15569); assay: KINOMEscan; type: binding; details: 1.0 µM
# T3 construct: purchased Eurofins/DiscoverX KINOMEscan scanMAX
# T3 sequence (Q15569 whole entry): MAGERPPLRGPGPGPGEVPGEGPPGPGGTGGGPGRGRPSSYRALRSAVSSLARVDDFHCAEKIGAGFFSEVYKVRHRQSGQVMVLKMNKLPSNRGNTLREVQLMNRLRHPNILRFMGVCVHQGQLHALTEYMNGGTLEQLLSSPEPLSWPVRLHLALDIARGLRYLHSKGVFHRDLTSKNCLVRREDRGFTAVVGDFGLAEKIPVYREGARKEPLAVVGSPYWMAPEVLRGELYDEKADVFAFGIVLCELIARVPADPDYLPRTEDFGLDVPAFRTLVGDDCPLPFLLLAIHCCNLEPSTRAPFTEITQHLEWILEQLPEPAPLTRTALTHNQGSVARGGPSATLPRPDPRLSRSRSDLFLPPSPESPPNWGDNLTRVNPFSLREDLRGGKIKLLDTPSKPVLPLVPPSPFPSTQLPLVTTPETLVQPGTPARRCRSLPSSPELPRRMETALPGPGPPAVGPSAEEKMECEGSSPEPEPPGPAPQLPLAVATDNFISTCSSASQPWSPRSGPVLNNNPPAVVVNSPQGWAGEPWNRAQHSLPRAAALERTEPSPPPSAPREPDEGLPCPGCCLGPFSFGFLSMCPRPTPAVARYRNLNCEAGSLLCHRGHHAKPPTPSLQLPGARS
# Description: as §1
# [1] = target: T4, ABL1(F317L)-nonphosphorylated (Homo sapiens, UniProt P00519, F317L); assay: KINOMEscan; type: binding; details: 1.0 µM
# T4 construct: purchased Eurofins/DiscoverX KINOMEscan scanMAX
# Description: as §1
# DMPK = target: T5, DMPK (Homo sapiens, UniProt Q09013); assay: KINOMEscan; type: binding; details: 1.0 µM
# T5 construct: purchased Eurofins/DiscoverX KINOMEscan scanMAX
# Description: as §1
# RIOK1 = target: T6, RIOK1 (Homo sapiens, UniProt Q9BRS2); assay: KINOMEscan; type: binding; details: 1.0 µM
# T6 construct: purchased Eurofins/DiscoverX KINOMEscan scanMAX
# Description: as §1
# [2] = target: T7, RSK2(Kin.Dom.2-C-terminal) (Homo sapiens, UniProt P51812); assay: KINOMEscan; type: binding; details: 1.0 µM
# T7 construct: RSK2(Kin.Dom.2-C-terminal); purchased Eurofins/DiscoverX KINOMEscan scanMAX
# T7 sequence (P51812 422-679 limits assumed): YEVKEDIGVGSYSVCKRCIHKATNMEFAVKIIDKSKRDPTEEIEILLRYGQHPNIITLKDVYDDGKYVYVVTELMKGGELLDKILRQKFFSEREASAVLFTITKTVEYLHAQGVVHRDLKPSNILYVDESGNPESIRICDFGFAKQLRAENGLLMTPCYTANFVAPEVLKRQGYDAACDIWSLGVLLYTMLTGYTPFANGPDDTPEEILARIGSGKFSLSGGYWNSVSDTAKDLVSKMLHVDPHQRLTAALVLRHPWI
# Description: as §1
# NEK1 = target: T8, NEK1 (Homo sapiens, UniProt Q96PY6); assay: KINOMEscan; type: binding; details: 1.0 µM
# T8 construct: purchased Eurofins/DiscoverX KINOMEscan scanMAX
# Description: as §1
# EPHB1 = target: T9, EPHB1 (Homo sapiens, UniProt P54762); assay: KINOMEscan; type: binding; details: 1.0 µM
# T9 construct: purchased Eurofins/DiscoverX KINOMEscan scanMAX
# T9 sequence (P54762 18-984): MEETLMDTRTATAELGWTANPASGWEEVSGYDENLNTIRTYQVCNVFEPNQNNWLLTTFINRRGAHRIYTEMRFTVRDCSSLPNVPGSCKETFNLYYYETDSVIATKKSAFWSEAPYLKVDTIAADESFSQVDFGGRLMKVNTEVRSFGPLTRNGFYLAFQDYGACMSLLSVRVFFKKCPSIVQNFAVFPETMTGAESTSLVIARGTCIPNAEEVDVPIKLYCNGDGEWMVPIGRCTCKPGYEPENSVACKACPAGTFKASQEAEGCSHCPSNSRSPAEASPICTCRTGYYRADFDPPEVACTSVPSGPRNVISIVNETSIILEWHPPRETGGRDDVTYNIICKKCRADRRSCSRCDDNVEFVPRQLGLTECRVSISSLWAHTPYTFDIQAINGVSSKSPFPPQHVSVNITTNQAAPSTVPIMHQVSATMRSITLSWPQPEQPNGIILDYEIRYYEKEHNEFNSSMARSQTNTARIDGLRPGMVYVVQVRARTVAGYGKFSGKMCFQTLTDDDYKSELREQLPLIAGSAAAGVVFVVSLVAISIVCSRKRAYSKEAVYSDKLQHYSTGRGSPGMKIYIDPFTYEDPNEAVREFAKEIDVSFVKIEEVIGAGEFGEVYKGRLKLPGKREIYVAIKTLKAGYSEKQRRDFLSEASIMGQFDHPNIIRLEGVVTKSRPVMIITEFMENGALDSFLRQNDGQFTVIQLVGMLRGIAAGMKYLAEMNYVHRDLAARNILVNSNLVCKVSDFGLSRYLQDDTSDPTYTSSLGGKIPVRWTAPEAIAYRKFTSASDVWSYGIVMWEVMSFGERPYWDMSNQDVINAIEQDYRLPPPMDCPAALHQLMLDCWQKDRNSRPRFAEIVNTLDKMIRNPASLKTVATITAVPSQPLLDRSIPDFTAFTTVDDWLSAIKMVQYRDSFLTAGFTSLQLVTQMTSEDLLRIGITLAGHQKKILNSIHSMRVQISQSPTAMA
# Description: as §1
# PRKR = target: T10, PRKR (Homo sapiens, UniProt P19525); assay: KINOMEscan; type: binding; details: 1.0 µM
# T10 construct: purchased Eurofins/DiscoverX KINOMEscan scanMAX
# Description: as §1
# SLK = target: T11, SLK (Homo sapiens, UniProt Q9H2G2); assay: KINOMEscan; type: binding; details: 1.0 µM
# T11 construct: purchased Eurofins/DiscoverX KINOMEscan scanMAX
# T11 sequence (Q9H2G2 whole entry): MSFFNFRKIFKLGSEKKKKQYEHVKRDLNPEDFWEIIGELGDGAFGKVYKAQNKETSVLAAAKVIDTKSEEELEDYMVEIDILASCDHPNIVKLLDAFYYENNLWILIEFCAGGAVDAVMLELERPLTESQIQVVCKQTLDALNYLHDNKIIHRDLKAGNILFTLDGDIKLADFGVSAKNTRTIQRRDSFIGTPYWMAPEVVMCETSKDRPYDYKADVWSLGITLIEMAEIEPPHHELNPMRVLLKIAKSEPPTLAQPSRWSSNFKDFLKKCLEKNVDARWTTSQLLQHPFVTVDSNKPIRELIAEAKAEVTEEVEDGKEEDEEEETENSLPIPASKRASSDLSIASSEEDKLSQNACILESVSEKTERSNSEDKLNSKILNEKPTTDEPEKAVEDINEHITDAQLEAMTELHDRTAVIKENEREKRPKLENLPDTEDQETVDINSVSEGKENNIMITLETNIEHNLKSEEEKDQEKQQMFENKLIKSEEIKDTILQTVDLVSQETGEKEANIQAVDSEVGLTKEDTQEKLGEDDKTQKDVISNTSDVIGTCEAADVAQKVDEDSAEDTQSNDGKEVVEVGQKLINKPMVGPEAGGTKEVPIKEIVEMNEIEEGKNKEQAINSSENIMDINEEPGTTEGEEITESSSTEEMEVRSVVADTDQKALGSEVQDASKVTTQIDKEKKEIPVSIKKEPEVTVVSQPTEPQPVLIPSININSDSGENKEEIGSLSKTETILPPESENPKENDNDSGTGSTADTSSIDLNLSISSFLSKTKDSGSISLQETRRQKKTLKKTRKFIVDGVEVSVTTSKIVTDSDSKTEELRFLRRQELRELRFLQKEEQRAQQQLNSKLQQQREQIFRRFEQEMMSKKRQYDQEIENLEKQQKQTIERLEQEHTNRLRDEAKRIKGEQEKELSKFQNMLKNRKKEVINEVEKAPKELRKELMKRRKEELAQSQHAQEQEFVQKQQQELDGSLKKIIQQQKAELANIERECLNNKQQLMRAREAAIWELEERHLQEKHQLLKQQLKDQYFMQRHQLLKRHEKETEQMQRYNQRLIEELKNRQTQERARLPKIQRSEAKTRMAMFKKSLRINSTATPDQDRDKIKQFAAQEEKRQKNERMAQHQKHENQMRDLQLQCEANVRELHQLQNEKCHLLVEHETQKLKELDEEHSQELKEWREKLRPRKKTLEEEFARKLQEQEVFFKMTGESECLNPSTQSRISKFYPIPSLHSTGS
# Description: as §1
# MTOR = target: T12, MTOR (Homo sapiens, UniProt P42345); assay: KINOMEscan; type: binding; details: 1.0 µM
# T12 construct: purchased Eurofins/DiscoverX KINOMEscan scanMAX
# Description: as §1
# [3] = target: T13, RSK3(Kin.Dom.1-N-terminal) (Homo sapiens, UniProt Q15349); assay: KINOMEscan; type: binding; details: 1.0 µM
# T13 construct: RSK3(Kin.Dom.1-N-terminal); purchased Eurofins/DiscoverX KINOMEscan scanMAX
# Description: as §1
# PFTK1 = target: T14, PFTK1 (Homo sapiens, UniProt O94921); assay: KINOMEscan; type: binding; details: 1.0 µM
# T14 construct: purchased Eurofins/DiscoverX KINOMEscan scanMAX
# Description: as §1
# MAP4K3 = target: T15, MAP4K3 (Homo sapiens, UniProt Q8IVH8); assay: KINOMEscan; type: binding; details: 1.0 µM
# T15 construct: purchased Eurofins/DiscoverX KINOMEscan scanMAX
# Description: as §1
# NEK9 = target: T16, NEK9 (Homo sapiens, UniProt Q8TD19); assay: KINOMEscan; type: binding; details: 1.0 µM
# T16 construct: purchased Eurofins/DiscoverX KINOMEscan scanMAX
# Description: as §1
# YSK4 = target: T17, YSK4 (Homo sapiens, UniProt Q56UN5); assay: KINOMEscan; type: binding; details: 1.0 µM
# T17 construct: purchased Eurofins/DiscoverX (KINOMEscan scanMAX service)
# Description: as §1
# RAF1 = target: T18, RAF1 (Homo sapiens, UniProt P04049); assay: KINOMEscan; type: binding; details: 1.0 µM
# T18 construct: purchased Eurofins/DiscoverX KINOMEscan scanMAX
# Description: as §1
# FLT4 = target: T19, FLT4 (Homo sapiens, UniProt P35916); assay: KINOMEscan; type: binding; details: 1.0 µM
# T19 construct: purchased Eurofins/DiscoverX KINOMEscan scanMAX
# Description: as §1
# ALK(L1196M) = target: T20, ALK(L1196M) (Homo sapiens, UniProt Q9UM73, L1196M); assay: KINOMEscan; type: binding; details: 1.0 µM
# T20 construct: purchased Eurofins/DiscoverX KINOMEscan scanMAX
# Description: as §1
# BRK = target: T21, BRK (Homo sapiens, UniProt Q13882); assay: KINOMEscan; type: binding; details: 1.0 µM
# T21 construct: purchased Eurofins/DiscoverX KINOMEscan scanMAX
# Description: as §1
# KIT(V559D) = target: T22, KIT(V559D) (Homo sapiens, UniProt P10721, V559D); assay: KINOMEscan; type: binding; details: 1.0 µM
# T22 construct: purchased Eurofins/DiscoverX KINOMEscan scanMAX
# T22 sequence (P10721 26-976 V559D): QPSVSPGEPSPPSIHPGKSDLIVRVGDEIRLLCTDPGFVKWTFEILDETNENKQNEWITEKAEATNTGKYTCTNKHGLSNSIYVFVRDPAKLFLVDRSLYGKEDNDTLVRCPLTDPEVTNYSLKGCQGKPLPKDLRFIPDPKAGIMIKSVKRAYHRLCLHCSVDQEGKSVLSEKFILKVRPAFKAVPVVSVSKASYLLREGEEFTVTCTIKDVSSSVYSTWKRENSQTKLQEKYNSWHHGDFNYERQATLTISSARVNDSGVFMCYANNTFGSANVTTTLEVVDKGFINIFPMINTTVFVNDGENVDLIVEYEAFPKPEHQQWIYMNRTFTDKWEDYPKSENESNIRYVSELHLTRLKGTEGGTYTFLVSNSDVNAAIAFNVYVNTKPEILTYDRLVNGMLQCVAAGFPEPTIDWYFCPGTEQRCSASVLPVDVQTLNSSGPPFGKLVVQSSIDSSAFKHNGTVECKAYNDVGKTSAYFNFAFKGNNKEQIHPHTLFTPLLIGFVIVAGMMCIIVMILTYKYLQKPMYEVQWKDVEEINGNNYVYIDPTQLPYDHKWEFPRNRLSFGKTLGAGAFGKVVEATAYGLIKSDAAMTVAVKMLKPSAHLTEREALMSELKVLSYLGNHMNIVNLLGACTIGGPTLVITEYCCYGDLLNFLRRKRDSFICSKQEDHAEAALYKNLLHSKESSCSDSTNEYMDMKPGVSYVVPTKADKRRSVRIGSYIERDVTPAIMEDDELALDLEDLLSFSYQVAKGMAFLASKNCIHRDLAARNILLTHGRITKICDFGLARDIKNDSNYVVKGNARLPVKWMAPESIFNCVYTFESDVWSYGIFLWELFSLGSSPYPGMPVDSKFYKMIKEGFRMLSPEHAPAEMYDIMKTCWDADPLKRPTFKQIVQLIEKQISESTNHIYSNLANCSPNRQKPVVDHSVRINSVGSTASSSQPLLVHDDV
# Description: as §1
# [4] = test system: chemotherapy-resistant AML patient xenografts; set-up: method as in PMID 23596204; details: mice; cited from earlier work
# Flt3-D835Y kinase domain = target: T23, Flt3-D835Y kinase domain (Homo sapiens, UniProt P36888, D835Y); assay: Z'-LYTE in vitro kinase assay; type: biochemical; details: Flt3 D835Y mutant
# T23 construct: Recombinant purified Flt3 wild-type, Flt3-ITD and Flt3-D835Y kinase domains were purchased from ThermoFisher; purchased ThermoFisher
# Description: Assays were performed in quadruplicate in 384-well low volume, non-binding, black polystyrene microplates (Corning) according to the manufacturer’s instructions. Briefly, this assay measures phosphorylation of the Tyr2 peptide substrate which is tagged with coumarin and fluorescein on its N- and C-termini, respectively, to form a FRET pair. After the kinase reaction, a development step involves site-specific proteolytic cleavage of the unphosphorylated but not the phosphorylated peptide. […] Kinase reactions were run in 50 mM HEPES, pH 7.5, 10 mM MgCl2, 1 mM EGTA, and 0.01% BRIJ-35 (buffer supplied by the manufacturer). […] Following incubation for 1 h at ambient temperature, reactions were quenched by addition of the development protease, and coumarin and fluorescein fluorescence were measured 1 h later on a Molecular Devices SpectraMax M5 plate reader. […] For experiments with inhibitors, compounds were preincubated with kinase for 30 min prior to initiation of the reaction by the addition of ATP.
smiles,measurement,setting,value
CN1CCN(C2CCC(n3cc(-c4ccc(Oc5ccccc5)cc4)c4c(N)ncnc43)CC2)CC1 (stereo not shown) [A-419259],effect of substitution on kinase sensitivity to A-419259,"Hck T338L; Hck gatekeeper threonine to leucine, vs wild-type",without an effect
same,IC50,"Hck T338L; read-out: A-419259 IC50, Fig 5B, Hck T338L, ATP at Km, mean ± SE, three independent determinations",41 ± 1 nM
same,% Control,CSK,2.1%
same,% Control,TESK1,95%
same,% Control,[1],4.7%
same,% Control,DMPK,100%
same,% Control,RIOK1,77%
same,% Control,[2],100%
same,% Control,NEK1,100%
same,% Control,EPHB1,96%
same,% Control,PRKR,100%
same,% Control,SLK,100%
same,% Control,MTOR,90%
same,% Control,[3],22%
same,% Control,PFTK1,63%
same,% Control,MAP4K3,32%
same,% Control,NEK9,90%
same,% Control,YSK4,58%
same,% Control,RAF1,40%
same,% Control,FLT4,19%
same,% Control,ALK(L1196M),68%
same,% Control,BRK,0.2%
same,% Control,KIT(V559D),0.05%
same,effect on chemotherapy-resistant AML patient xenografts,[4],completely eliminates
same,resistance to A-419259 in in vitro kinase assays,Flt3-D835Y kinase domain,about 6 fold
